# From ChEMBL document CHEMBL1124119, “(+/-)-4-tert-butyl-3-cyano-1-(4-ethynylphenyl)-2,6,7-trioxabi cyclo[2.2.2]octane: synthesis of a remarkably potent GABAA receptor antagonist” (J Med Chem, 1988)
# What was measured:
# [1] = target: Gamma-aminobutyric acid receptor subunit gamma-1 (Rattus norvegicus, UniProt P23574); test: Inhibition of GABA-stimulated 36Cl- uptake by membrane vesicles of rat cerebral cortex; type: functional, tissue-based
# [2] = target: GABA-A receptor; anion channel; test: In vitro inhibition of [35S]-TBPS binding to EDTA/water-dialyzed mouse brain P2 membranes; type: tissue-based
# [3] = target: T1, GABA-A receptor; anion channel (Mus musculus) (UniProt Q8BHJ7+P26048+Q8QZW7+P50571+Q9R0Y8+P22723+A2AMW3+P62812+Q9JLF1+P26049+P22933+Q9D6F4+P63080+P27681+P16305); test: Ex vivo inhibition of [35S]TBPS binding to mouse brain membranes after 30 min; type: tissue-based; settings: Membrane
# [4] = target: T1, GABA-A receptor; anion channel (Mus musculus); test: Ex vivo inhibition of [35S]TBPS binding to mouse brain membranes in the presence of phenobarbital after 30 min; type: tissue-based; settings: Membrane
# [5] = target: T1, GABA-A receptor; anion channel (Mus musculus); test: Ex vivo inhibition of [35S]TBPS binding to mouse brain membranes in the presence of Diazepam after 30 min; type: tissue-based; settings: Membrane
# [6] = target: GABA-A receptor; anion channel; test: In vitro inhibition of [35S]TBPS binding to EDTA/water-dialyzed mouse brain P2 membranes; type: tissue-based
# Gamma-aminobutyric acid receptor subunit gamma-1, sequence (P23574 whole entry): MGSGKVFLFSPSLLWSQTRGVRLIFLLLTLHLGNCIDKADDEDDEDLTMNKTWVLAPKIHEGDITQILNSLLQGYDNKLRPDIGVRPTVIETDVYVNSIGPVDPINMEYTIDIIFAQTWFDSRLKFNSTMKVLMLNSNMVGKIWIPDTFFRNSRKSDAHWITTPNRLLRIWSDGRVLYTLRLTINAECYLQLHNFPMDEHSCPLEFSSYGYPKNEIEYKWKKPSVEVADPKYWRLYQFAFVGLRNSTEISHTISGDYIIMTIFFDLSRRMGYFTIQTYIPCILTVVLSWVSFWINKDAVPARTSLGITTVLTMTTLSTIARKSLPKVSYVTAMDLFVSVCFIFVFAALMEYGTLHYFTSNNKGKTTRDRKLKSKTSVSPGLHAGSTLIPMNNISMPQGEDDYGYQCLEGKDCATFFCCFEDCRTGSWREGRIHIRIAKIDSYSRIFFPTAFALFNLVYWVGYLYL
SMILES,IC50 [1],IC50 [2],inhibition [3],inhibition [4],inhibition [5],IC50 [6]
CC(C)(C)C12COC(c3ccc(C#N)cc3)(OC1)OC2,40 nM,2.5 nM,–,–,–,–
C#Cc1ccc(C23OCC(C(C)(C)C)(CO2)C(C#N)O3)cc1 (configuration not stated),25 nM,–,68%,61%,59%,0.25 nM
